According to US7211116B2, “Hair dye composition” (Kao Corporation, priority 2001, dated 2007):

Assay: Measurement of hydrogen peroxide remaining ratio in a virtual hair bleach composition (Cu, ammonia, H2O2; iodometric titration)
Details: 20.0 mg compound, aqueous Cu solution, stirred 10 minutes at 30° C.
Experimental: The first requirement is a remaining ratio of hydrogen peroxide. The remaining ratio of hydrogen peroxide is determined by measuring the remaining amount of hydrogen peroxide in a virtual hair bleach composition after a predetermined time. The remaining ratio exceeding a predetermined value allows existence of hydrogen peroxide which can be used for hair bleaching or dyeing and promotes the hair bleaching action. The remaining ratio below a predetermined value, on the other hand, prevents excessive stabilization of hydrogen peroxide, whereby the oxidizing agent acts to emit adequate —O2H (perhydroxy anion).
The hydrogen peroxide remaining ratio in the present invention is measured in the following manner. Measurement of hydrogen peroxide remaining ratio %: In a 50 mL screw tube are charged 20.0 mg of Compound (A) and 5.98 g of deionized water to dissolve the former in the latter. […] The point when a violet color (bluish violet to reddish violet) disappears completely is designated as a terminal point and hydrogen peroxide % is determined in accordance with the below-described equation. The amount of hydrogen peroxide in an aqueous solution obtained by diluting 10.00 of 2% aqueous hydrogen peroxide with 10.00 g of deionized water is also measured and the hydrogen peroxide amount at this time is taken as a hydrogen peroxide remaining ratio of 100%.

NCCCN [1,3-Propanediamine]
Hydrogen peroxide remaining ratio: 19.3%
